Holding throughout (assay): Dundee kinase screen re-test (standard format and 4 hour pre-incubation)
Format in all cases: biochemical

For assay [1], the target named is T1, TTK (Homo sapiens, UniProt P33981).
T1 sequence (P33981 1-857): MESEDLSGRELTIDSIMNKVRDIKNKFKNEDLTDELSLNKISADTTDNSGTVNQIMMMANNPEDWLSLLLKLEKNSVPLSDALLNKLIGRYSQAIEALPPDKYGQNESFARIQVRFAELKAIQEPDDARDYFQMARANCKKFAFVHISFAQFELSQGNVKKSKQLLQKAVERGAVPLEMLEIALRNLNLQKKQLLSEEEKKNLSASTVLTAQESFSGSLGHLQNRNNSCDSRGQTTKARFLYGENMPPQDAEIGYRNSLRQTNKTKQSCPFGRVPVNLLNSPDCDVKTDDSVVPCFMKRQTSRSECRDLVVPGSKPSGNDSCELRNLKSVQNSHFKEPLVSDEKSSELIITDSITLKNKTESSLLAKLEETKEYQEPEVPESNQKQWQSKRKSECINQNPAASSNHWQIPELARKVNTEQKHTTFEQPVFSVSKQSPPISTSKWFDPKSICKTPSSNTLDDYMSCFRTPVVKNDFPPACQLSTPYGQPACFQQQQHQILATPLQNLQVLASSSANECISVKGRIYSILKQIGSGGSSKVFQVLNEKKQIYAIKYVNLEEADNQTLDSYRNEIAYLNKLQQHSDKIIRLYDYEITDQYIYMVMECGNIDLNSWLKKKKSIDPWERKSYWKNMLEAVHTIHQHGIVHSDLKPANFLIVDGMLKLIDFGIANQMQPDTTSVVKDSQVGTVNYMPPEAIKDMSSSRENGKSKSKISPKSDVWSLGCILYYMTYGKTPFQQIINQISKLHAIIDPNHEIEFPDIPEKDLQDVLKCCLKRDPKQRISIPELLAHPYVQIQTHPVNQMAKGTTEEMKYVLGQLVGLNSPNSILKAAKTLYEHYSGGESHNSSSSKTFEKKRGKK
As to the method: (§1) Prior to determining its cellular activity, we carried out a screen to assess its selectivity against a panel of 131 protein kinases under conditions that would not distinguish between a reversible or irreversible mode of action. […] These 13 kinases and 29 additional kinases, selected for their known sensitivity to other inhibitors within the purine series, were then tested in a modified screening format in which the assay was repeated following a 4-hr pre-incubation (Table S3B). […] However, conformational flexibility around the active site may promote such an interaction with a residue from another part of the structure ([Martin et al., 2012]).
(§2) Table S3, Related to Figure 4. NCL-0006300 protein kinase selectivity. […]
(§3) Dundee protein kinase screen (Bain et al., 2007). […]
(§4) (B) Selected kinases were re-tested in the Dundee kinase screen against NU6300 at a single concentration of 0.5 µM both in the standard assay format and following a 4 hour pre-incubation in the presence of NU6300. Kinases which have very low activity after the 4 hour incubation so that results might not be wholly reliable are boxed in salmon. Kinases where the activity after a 4 hour pre-incubation is < 50% that in the standard assay format are highlighted in red.

Assay [2] deals with JAK2 (Homo sapiens, UniProt O60674). As to conditions: JAK2, 0.5µM. How it is done: as §1, §2, §3, §4
Chain of JAK2 (O60674 whole entry): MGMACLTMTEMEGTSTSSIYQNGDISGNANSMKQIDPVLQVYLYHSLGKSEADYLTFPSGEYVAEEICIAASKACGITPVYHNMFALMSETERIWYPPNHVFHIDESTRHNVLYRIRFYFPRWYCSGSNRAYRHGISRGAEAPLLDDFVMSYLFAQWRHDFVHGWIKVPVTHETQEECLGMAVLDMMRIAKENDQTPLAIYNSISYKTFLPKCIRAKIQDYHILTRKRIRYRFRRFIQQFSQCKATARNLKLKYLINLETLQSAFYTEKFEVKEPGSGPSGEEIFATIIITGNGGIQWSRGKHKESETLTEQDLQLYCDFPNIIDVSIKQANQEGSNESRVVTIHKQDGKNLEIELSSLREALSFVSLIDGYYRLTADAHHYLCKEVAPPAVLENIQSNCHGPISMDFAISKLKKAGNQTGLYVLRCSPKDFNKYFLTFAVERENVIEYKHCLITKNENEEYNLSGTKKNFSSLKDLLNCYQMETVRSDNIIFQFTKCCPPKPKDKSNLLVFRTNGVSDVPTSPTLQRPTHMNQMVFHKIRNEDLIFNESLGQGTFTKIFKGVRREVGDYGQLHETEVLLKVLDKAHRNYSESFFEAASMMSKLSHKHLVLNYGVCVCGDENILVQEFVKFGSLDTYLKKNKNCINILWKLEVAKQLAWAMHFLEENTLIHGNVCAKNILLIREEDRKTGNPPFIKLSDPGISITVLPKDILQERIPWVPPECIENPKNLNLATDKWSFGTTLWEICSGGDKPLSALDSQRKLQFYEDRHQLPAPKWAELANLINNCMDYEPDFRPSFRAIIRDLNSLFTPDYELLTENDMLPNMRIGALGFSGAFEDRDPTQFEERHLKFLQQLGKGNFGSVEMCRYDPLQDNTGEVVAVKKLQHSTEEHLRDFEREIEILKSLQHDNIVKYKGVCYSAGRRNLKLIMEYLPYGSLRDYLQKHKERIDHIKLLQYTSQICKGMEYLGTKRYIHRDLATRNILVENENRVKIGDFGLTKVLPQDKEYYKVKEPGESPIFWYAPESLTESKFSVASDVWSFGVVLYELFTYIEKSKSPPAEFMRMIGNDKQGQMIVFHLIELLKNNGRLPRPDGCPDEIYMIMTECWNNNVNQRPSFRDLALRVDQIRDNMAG
The target of assay [3] is T2, EPH-B3 (Homo sapiens, UniProt P54753).
T2 sequence (P54753 34-998): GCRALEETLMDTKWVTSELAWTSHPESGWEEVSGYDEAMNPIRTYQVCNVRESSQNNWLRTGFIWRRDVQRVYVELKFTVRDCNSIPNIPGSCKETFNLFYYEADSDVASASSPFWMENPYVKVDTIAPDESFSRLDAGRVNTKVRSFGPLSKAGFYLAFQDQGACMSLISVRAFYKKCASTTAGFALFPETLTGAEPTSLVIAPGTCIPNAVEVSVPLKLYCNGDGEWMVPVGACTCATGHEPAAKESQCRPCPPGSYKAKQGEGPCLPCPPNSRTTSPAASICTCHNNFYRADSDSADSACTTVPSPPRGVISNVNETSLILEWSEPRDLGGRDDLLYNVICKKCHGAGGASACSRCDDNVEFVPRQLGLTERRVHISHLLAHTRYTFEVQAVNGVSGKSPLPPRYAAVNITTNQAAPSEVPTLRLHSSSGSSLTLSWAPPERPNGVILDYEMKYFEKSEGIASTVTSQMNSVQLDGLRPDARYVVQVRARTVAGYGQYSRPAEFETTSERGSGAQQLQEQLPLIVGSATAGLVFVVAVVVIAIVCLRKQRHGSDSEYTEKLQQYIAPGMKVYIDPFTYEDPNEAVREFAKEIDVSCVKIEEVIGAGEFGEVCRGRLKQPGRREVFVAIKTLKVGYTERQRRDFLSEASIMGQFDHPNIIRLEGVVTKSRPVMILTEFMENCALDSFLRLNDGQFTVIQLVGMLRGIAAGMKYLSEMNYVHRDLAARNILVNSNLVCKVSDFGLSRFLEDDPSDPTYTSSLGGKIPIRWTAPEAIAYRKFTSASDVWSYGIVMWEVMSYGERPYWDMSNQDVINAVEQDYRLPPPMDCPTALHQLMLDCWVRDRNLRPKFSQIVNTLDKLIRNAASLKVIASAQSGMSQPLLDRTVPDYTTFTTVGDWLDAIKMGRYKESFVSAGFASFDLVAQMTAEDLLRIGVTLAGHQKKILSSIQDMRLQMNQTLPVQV
As to conditions: EPH-B3, 0.5µM. How it is done: as §1, §2, §3, §4

In assay [4] the target is MLK3 (Homo sapiens, UniProt Q16584). Conditions: MLK3, 0.5µM. As to the method:
as §1, §2, §3, §4

Setting [5] is: 4hr RT preincubation, read-out: %Remaining activity at 0.5µM NU6300 - 4hr RT preincubation.
[6] abbreviates: usual format, read-out: %Remaining activity at 0.5µM NU6300 - Usual assay format.

Read-outs that look alike come from different tables or passages of the source.

Chain of MLK3 (Q16584 whole entry): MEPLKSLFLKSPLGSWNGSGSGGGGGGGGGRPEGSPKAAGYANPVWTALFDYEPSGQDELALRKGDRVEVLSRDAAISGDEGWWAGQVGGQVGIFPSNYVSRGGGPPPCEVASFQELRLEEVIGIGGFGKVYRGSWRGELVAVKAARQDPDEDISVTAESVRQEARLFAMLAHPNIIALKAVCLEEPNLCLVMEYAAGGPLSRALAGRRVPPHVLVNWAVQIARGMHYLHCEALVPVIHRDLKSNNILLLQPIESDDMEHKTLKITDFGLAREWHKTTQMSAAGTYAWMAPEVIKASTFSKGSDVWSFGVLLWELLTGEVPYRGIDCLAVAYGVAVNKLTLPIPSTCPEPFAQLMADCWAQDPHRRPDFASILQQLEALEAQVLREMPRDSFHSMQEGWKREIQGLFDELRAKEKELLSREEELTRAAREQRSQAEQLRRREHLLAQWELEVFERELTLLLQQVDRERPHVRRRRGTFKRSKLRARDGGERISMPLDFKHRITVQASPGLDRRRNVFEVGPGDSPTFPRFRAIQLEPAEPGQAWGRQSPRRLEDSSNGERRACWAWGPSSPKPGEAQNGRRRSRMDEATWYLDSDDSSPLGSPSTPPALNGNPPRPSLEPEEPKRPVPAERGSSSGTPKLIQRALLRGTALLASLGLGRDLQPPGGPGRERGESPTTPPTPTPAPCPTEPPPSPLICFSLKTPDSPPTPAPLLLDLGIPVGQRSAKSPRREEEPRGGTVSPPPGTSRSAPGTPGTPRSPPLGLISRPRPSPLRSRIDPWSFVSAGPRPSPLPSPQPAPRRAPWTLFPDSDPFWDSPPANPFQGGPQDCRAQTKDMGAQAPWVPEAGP

As a reminder, the remaining activity is the activity still measured, relative to the control. With `C=CS(=O)(=O)c1ccc(Nc2nc(OCC3CCCCC3)c3nc[nH]c3n2)cc1` [NU6300, 6-(cyclohexylmethoxy)-N-(4-(vinylsulfonyl)phenyl)-9H-purin-2-amine], the remaining activity at 0.5 µM was determined as 47% in assay [1] (setting [5]); 41% in assay [1] (setting [6]); 7% in assay [2] (setting [5]); 9% in assay [2] (setting [6]); 17% in assay [3] (setting [5]); 12% in assay [3] (setting [6]). For the same molecule, the remaining activity at 0.5 µM was found to be 52% in assay [4] (setting [5]) and 5% in assay [4] (setting [6]).
